Assay results published in US20230077362A1 (CORTEVA AGRISCIENCE LLC, priority 2019, published 2023).

Legend:
Type in all cases: in vivo
[1] = tested on: Cabbage Looper (Trichoplusia ni) ("CL"), second instar larvae; assay: Bioassay on cabbage looper (CL), 128-well diet tray assay; conditions: Trichoplusia ni, read-out: CL (Biological Results, rating)
How it was run: (§1)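 Each value represents average percent mortality from eight wells. Larvae were kept in clear-covered trays at 25° C. for five to seven days on a 14-hour light, 10-hour dark schedule before scoring.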

[2] = tested on: Beet Armyworm (Spodoptera exigua) ("BAW"), second instar larvae; assay: Bioassay on beet armyworm (BAW), 128-well diet tray assay; conditions: Spodoptera exigua, read-out: BAW (Biological Results, rating)
How it was run: as §1

[3] = tested on: Green Peach Aphid ("GPA") (Myzus persicae), wingless adult and nymph stages; assay: Bioassay on green peach aphid (GPA), foliar spray on infested cabbage seedlings; conditions: Myzus persicae, foliar, 72 h, read-out: GPA (Biological Results, rating)
Description: Certain molecules disclosed in this document were tested against GPA using procedures described in the following example. In the reporting of the results, the “GPA Rating Table” was used (See Table Section).
Cabbage seedlings grown in 3-inch pots, with 2-3 small (3-5 cm) true leaves, were used as test substrate. The seedlings were infested with 20-50 GPA (wingless adult and nymph stages) one day prior to chemical application. Four pots with individual seedlings were used for each treatment. Test compounds (2 mg) were dissolved in 2 mL of acetone/methanol (1:1) solvent, forming stock solutions of 1000 ppm test compound. […] A hand-held aspirator-type sprayer was used for spraying a solution to both sides of […] leaves until runoff. Reference plants (solvent check) were sprayed with the diluent only containing 20% by volume of acetone/methanol (1:1) solvent. Treated plants were held in a holding room for three days at approximately 25° C. and ambient relative humidity (RH) prior to grading. Evaluation was conducted by counting the number of live aphids per plant under a microscope.
Corrected % Control=100*(X−Y)/X • where • X=No. of live aphids on solvent check plants and • Y=No. of live aphids on treated plants
The results are indicated in the table entitled “Table ABC: Biological Results” (See Table Section).

Structure (SMILES)	pest or weed control at 50 µg/cm2 [1] [%]	pest or weed control at 50 µg/cm2 [2] [%]	pest or weed control at 200 µg/mL [3] [%]
CC(=O)c1ccc(C(C)C)c(N2C(=O)CS/C2=N\C(=O)Nc2ccc(-c3ncn(-c4ccc(OC(F)(F)F)cc4)n3)cc2F)c1 [Compound J77, (Z)-1-(3-(5-Acetyl-2-isopropylphenyl)-4-oxothiazolidin-2-ylidene)-3-(2-fluoro-4-(1-(4-(trifluoromethoxy)phenyl)-1H-1,2,4-triazol-3-yl)phenyl)urea]	50 to 100	50 to 100	0 to 80
CC(C)c1ccccc1N1C(=O)CS/C1=N\C(=O)Nc1ccc(-c2ncn(-c3ccc(OC(F)(F)F)cc3)n2)cc1F [Compound J86, (Z)-1-(2-Fluoro-4-(1-(4-(trifluoromethoxy)phenyl)-1H-1,2,4-triazol-3-yl)phenyl)-3-(3-(2-isopropylphenyl)-4-oxothiazolidin-2-ylidene)urea]	50 to 100	50 to 100	0 to 80
COC(C)c1ccccc1N1C(=O)CS/C1=N\C(=O)Nc1ccc(-c2ncn(-c3ccc(OC(F)(F)F)cc3)n2)cc1F (stereo not drawn) [Compound J87, (Z)-1-(2-Fluoro-4-(1-(4-(trifluoromethoxy)phenyl)-1H-1,2,4-triazol-3-yl)phenyl)-3-(3-(2-(1-methoxyethyl)phenyl)-4-oxothiazolidin-2-ylidene)urea]	50 to 100	50 to 100	0 to 80
N#Cc1ccc(OCCC(F)(F)F)c(N2C(=O)CS/C2=N\C(=O)Nc2ccc(-c3ncn(-c4ccc(OC(F)(F)F)cc4)n3)cc2F)c1 [Compound J103, (Z)-1-(3-(5-Cyano-2-(3,3,3-trifluoropropoxy)phenyl)-4-oxothiazolidin-2-ylidene)-3-(2-fluoro-4-(1-(4-(trifluoromethoxy)phenyl)-1H-1,2,4-triazol-3-yl)phenyl)urea]	50 to 100	50 to 100	0 to 80
COC(=O)c1ccc(C(C)C)c(N2C(=O)CS/C2=N\C(=O)Nc2ccc(-c3ncn(-c4ccc(OC(F)(F)F)cc4)n3)cc2F)c1 [Compound J104, Methyl (Z)-3-(2-(((2-fluoro-4-(1-(4-(trifluoromethoxy)phenyl)-1H-1,2,4-triazol-3-yl)phenyl)carbamoyl)imino)-4-oxothiazolidin-3-yl)-4-isopropylbenzoate]	50 to 100	50 to 100	0 to 80
CN(C)c1ccc(OCCC(F)(F)F)c(N2C(=O)CS/C2=N\C(=O)Nc2ccc(-c3ncn(-c4ccc(OC(F)(F)F)cc4)n3)cc2F)c1 [Compound J105, (Z)-1-(3-(5-(Dimethylamino)-2-(3,3,3-trifluoropropoxy)phenyl)-4-oxothiazolidin-2-ylidene)-3-(2-fluoro-4-(1-(4-(trifluoromethoxy)phenyl)-1H-1,2,4-triazol-3-yl)phenyl)urea]	50 to 100	50 to 100	0 to 80
Cc1cc(-c2ncn(-c3ccc(OC(F)(F)F)cc3)n2)ccc1NC(=O)/N=C1\SCC(=O)N1c1ccc(N(C)C)cc1C(C)C [Compound J113, (Z)-1-(3-(4-(Dimethylamino)-2-isopropylphenyl)-4-oxothiazolidin-2-ylidene)-3-(2-methyl-4-(1-(4-(trifluoromethoxy)phenyl)-1H-1,2,4-triazol-3-yl)phenyl)urea]	50 to 100	50 to 100	0 to 80
CC(C)c1ccc(N(C)C)cc1N1C(=O)CS/C1=N\C(=O)Nc1ccc(-c2ncn(-c3ccc(OC(F)(F)F)cc3)n2)cc1C(F)(F)F [Compound J116, (Z)-1-(3-(5-(Dimethylamino)-2-isopropylphenyl)-4-oxothiazolidin-2-ylidene)-3-(4-(1-(4-(trifluoromethoxy)phenyl)-1H-1,2,4-triazol-3-yl)-2-(trifluoromethyl)phenyl)urea]	50 to 100	50 to 100	0 to 80
COC(C)c1ccc(C)cc1N1C(=O)CS/C1=N\C(=O)Nc1ccc(-c2ncn(-c3cccc(C(F)(F)F)c3)n2)cc1F (stereo not drawn) [Compound J119, (Z)-1-(2-Fluoro-4-(1-(3-(trifluoromethyl)phenyl)-1H-1,2,4-triazol-3-yl)phenyl)-3-(3-(2-(1-methoxyethyl)-5-methylphenyl)-4-oxothiazolidin-2-ylidene)urea]	50 to 100	50 to 100	0 to 80
COC(C)c1ccc(C)cc1N1C(=O)CS/C1=N\C(=O)Nc1ccc(-c2ncn(-c3cccc(OC(F)(F)F)c3)n2)cc1F (stereo not drawn) [Compound J120, (Z)-1-(2-Fluoro-4-(1-(3-(trifluoromethoxy)phenyl)-1H-1,2,4-triazol-3-yl)phenyl)-3-(3-(2-(1-methoxyethyl)-5-methylphenyl)-4-oxothiazolidin-2-ylidene)urea]	50 to 100	50 to 100	0 to 80
Cc1ccc(OCC(F)(F)F)c(N2C(=O)CS/C2=N\C(=O)Nc2ccc(-c3ncn(-c4cccc(C(F)(F)F)c4)n3)cc2F)c1 [Compound J122, (Z)-1-(2-Fluoro-4-(1-(3-(trifluoromethyl)phenyl)-1H-1,2,4-triazol-3-yl)phenyl)-3-(3-(5-methyl-2-(2,2,2-trifluoroethoxy)phenyl)-4-oxothiazolidin-2-ylidene)urea]	50 to 100	50 to 100	0 to 80
Cc1ccc(COCC(F)(F)F)c(N2C(=O)CS/C2=N\C(=O)Nc2ccc(-c3ncn(-c4ccc(OC(F)(F)F)cc4)n3)cc2F)c1 [Compound J123, (Z)-1-(2-fluoro-4-(1-(4-(trifluoromethoxy)phenyl)-1H-1,2,4-triazol-3-yl)phenyl)-3-(3-(5-methyl-2-((2,2,2-trifluoroethoxy)methyl)phenyl)-4-oxothiazolidin-2-ylidene)urea]	50 to 100	50 to 100	0 to 80
CNc1ccc(C(C)C)c(N2C(=O)CS/C2=N\C(=O)Nc2ccc(-c3ncn(-c4ccc(OC(F)(F)F)cc4)n3)cc2C)c1 [Compound J126, (Z)-1-(3-(2-Isopropyl-5-(methylamino)phenyl)-4-oxothiazolidin-2-ylidene)-3-(2-methyl-4-(1-(4-(trifluoromethoxy)phenyl)-1H-1,2,4-triazol-3-yl)phenyl)urea]	50 to 100	50 to 100	0 to 80
CCNc1ccc(C(C)C)c(N2C(=O)CS/C2=N\C(=O)Nc2ccc(-c3ncn(-c4ccc(OC(F)(F)F)cc4)n3)cc2C)c1 [Compound J127, (Z)-1-(3-(5-(Ethylamino)-2-isopropylphenyl)-4-oxothiazolidin-2-ylidene)-3-(2-methyl-4-(1-(4-(trifluoromethoxy)phenyl)-1H-1,2,4-triazol-3-yl)phenyl)urea]	50 to 100	50 to 100	0 to 80
COc1ccc(C(C)C)c(N2C(=O)CS/C2=N\C(=O)Nc2ccc(-c3ncn(-c4cccc(C(F)(F)F)c4)n3)cc2C)c1 [Compound J132, (Z)-1-(3-(2-Isopropyl-5-methoxyphenyl)-4-oxothiazolidin-2-ylidene)-3-(2-methyl-4-(1-(3-(trifluoromethyl)phenyl)-1H-1,2,4-triazol-3-yl)phenyl)urea]	50 to 100	50 to 100	0 to 80
Cc1cc(-c2ncn(-c3cccc(C(F)(F)F)c3)n2)ccc1NC(=O)/N=C1\SCC(=O)N1c1cc(N(C)C)ccc1C(C)C [Compound J133, (Z)-1-(3-(5-(Dimethylamino)-2-isopropylphenyl)-4-oxothiazolidin-2-ylidene)-3-(2-methyl-4-(1-(3-(trifluoromethyl)phenyl)-1H-1,2,4-triazol-3-yl)phenyl)urea]	50 to 100	50 to 100	0 to 80
Cc1ccc(OCCC(F)(F)F)c(N2C(=O)CS/C2=N\C(=O)Nc2ccc(-c3ncn(-c4cccc(C(F)(F)F)c4)n3)cc2C)c1 [Compound J134, (Z)-1-(3-(5-Methyl-2-(3,3,3-trifluoropropoxy)phenyl)-4-oxothiazolidin-2-ylidene)-3-(2-methyl-4-(1-(3-(trifluoromethyl)phenyl)-1H-1,2,4-triazol-3-yl)phenyl)urea]	50 to 100	50 to 100	0 to 80
Cc1ccc(C(C)C)c(N2C(=O)CS/C2=N\C(=O)Nc2ccc(-c3ncn(-c4cccc(OC(F)(F)F)c4)n3)cc2C)c1 [Compound J135, (Z)-1-(3-(2-Isopropyl-5-methylphenyl)-4-oxothiazolidin-2-ylidene)-3-(2-methyl-4-(1-(3-(trifluoromethoxy)phenyl)-1H-1,2,4-triazol-3-yl)phenyl)urea]	50 to 100	50 to 100	0 to 80
